Laboratory results from patent US8048825B2, “Haloalkylsulfonanilide derivatives or salt thereof, herbicide comprising the derivatives as active ingredient, and use of the herbicide” (Nihon Nohyaku Co., Ltd., priority 2006, dated 2011).

Experiments:
Assay type in all cases: in vivo
[1] = system: Scirpus juncoides; experiment: Herbicidal effect on paddy field weeds of post-emergence stage (Post), Test Example 2; details: one-leaf stage, 1000 g/ha as active ingredient, examined after 21 days
Method in brief: (§1)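 Scirpus juncoides and Echinochloa crus-galli sown in clay loam, with Lindernia procumbens seed in the soil cover, under 5 cm flooding in greenhouse. At one-leaf stage, 1000 g/ha active ingredient applied to pot water. Efficacy scored visually 0–5 against untreated plants at 21 days after treatment.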

[2] = system: Echinochloa crus-galli; experiment: as above; details: one-leaf stage, 1000 g/ha as active ingredient, examined after 21 days
Method in brief: as §1

[3] = system: Lindernia procumbens; experiment: as above; details: one-leaf stage, 1000 g/ha as active ingredient, examined after 21 days
Method in brief: as §1

[4] = system: Scirpus juncoides; experiment: Herbicidal efficacy on paddy field weeds of pre-emergence stage (Pre), Test Example 1; details: 1000 g/ha as active ingredient, examined after 21 days
Method in brief: (§2)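 Clay-loam pots sown with Scirpus juncoides, covered with soil containing Lindernia procumbens seed, flooded to 5 cm. Next day formulated compound applied dropwise to water at 1000 g/ha a.i. Greenhouse-grown; growth inhibition versus untreated scored 0–5 after 21 days.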

[5] = system: Lindernia procumbens; experiment: as above; details: 1000 g/ha as active ingredient, examined after 21 days
Method in brief: as §2

SMILES	Scirpus juncoides post (herbicidal effect) [1]	Echinochloa crus-galli post (herbicidal effect) [2]	Lindernia procumbens post (herbicidal effect) [3]	Scirpus juncoides pre (herbicidal effect) [4]	Lindernia procumbens pre (herbicidal effect) [5]
CCC1(CC)CCN(Cc2ccccc2N(C(=O)OCC(C)C)S(=O)(=O)C(F)(F)F)C(=O)O1 [Compound 1-107]	4 (90%-99% herbicidal effect, phytotoxicity)	4 (90%-99% herbicidal effect, phytotoxicity)	4 (90%-99% herbicidal effect, phytotoxicity)	4 (90%-99% herbicidal effect, phytotoxicity)	4 (90%-99% herbicidal effect, phytotoxicity)
CCCCC(CC)COC(=O)N(c1ccccc1CN1CCC(CC)(CC)OC1=O)S(=O)(=O)C(F)(F)F (centres unmarked) [Compound 1-109]	4 (90%-99% herbicidal effect, phytotoxicity)	4 (90%-99% herbicidal effect, phytotoxicity)	4 (90%-99% herbicidal effect, phytotoxicity)	4 (90%-99% herbicidal effect, phytotoxicity)	4 (90%-99% herbicidal effect, phytotoxicity)
CCC1(CC)CCN(Cc2ccccc2N(C(=O)OCC(C)(C)C)S(=O)(=O)C(F)(F)F)C(=S)O1 [Compound 1-120]	4 (90%-99% herbicidal effect, phytotoxicity)	4 (90%-99% herbicidal effect, phytotoxicity)	4 (90%-99% herbicidal effect, phytotoxicity)	4 (90%-99% herbicidal effect, phytotoxicity)	4 (90%-99% herbicidal effect, phytotoxicity)
CC1(C2CC2)CCN(Cc2ccccc2NS(=O)(=O)C(F)(F)F)C(=O)O1 (centres unmarked) [Compound 1-125]	4 (90%-99% herbicidal effect, phytotoxicity)	4 (90%-99% herbicidal effect, phytotoxicity)	4 (90%-99% herbicidal effect, phytotoxicity)	4 (90%-99% herbicidal effect, phytotoxicity)	4 (90%-99% herbicidal effect, phytotoxicity)
CC(C)COC(=O)N(c1ccccc1CN1CCC(C)(C2CC2)OC1=O)S(=O)(=O)C(F)(F)F (centres unmarked) [Compound 1-130]	4 (90%-99% herbicidal effect, phytotoxicity)	4 (90%-99% herbicidal effect, phytotoxicity)	4 (90%-99% herbicidal effect, phytotoxicity)	4 (90%-99% herbicidal effect, phytotoxicity)	4 (90%-99% herbicidal effect, phytotoxicity)
CC(C)(C)COC(=O)N(c1ccccc1CN1CCC(C)(C2CC2)OC1=O)S(=O)(=O)C(F)(F)F (centres unmarked) [Compound 1-131]	4 (90%-99% herbicidal effect, phytotoxicity)	4 (90%-99% herbicidal effect, phytotoxicity)	4 (90%-99% herbicidal effect, phytotoxicity)	4 (90%-99% herbicidal effect, phytotoxicity)	4 (90%-99% herbicidal effect, phytotoxicity)
CC(C)(C)C(=O)OCN(c1ccccc1CN1CCC(C)(C2CC2)OC1=O)S(=O)(=O)C(F)(F)F (centres unmarked) [Compound 1-136]	4 (90%-99% herbicidal effect, phytotoxicity)	4 (90%-99% herbicidal effect, phytotoxicity)	4 (90%-99% herbicidal effect, phytotoxicity)	4 (90%-99% herbicidal effect, phytotoxicity)	4 (90%-99% herbicidal effect, phytotoxicity)
O=C1OC2(CCCC2)CCN1Cc1ccccc1NS(=O)(=O)C(F)(F)F [Compound 1-137]	4 (90%-99% herbicidal effect, phytotoxicity)	4 (90%-99% herbicidal effect, phytotoxicity)	4 (90%-99% herbicidal effect, phytotoxicity)	4 (90%-99% herbicidal effect, phytotoxicity)	4 (90%-99% herbicidal effect, phytotoxicity)
CC(C)COC(=O)N(c1ccccc1CN1CCC2(CCCC2)OC1=O)S(=O)(=O)C(F)(F)F [Compound 1-142]	4 (90%-99% herbicidal effect, phytotoxicity)	4 (90%-99% herbicidal effect, phytotoxicity)	4 (90%-99% herbicidal effect, phytotoxicity)	4 (90%-99% herbicidal effect, phytotoxicity)	4 (90%-99% herbicidal effect, phytotoxicity)
CC(C)(C)COC(=O)N(c1ccccc1CN1CCC2(CCCC2)OC1=O)S(=O)(=O)C(F)(F)F [Compound 1-143]	4 (90%-99% herbicidal effect, phytotoxicity)	4 (90%-99% herbicidal effect, phytotoxicity)	4 (90%-99% herbicidal effect, phytotoxicity)	4 (90%-99% herbicidal effect, phytotoxicity)	4 (90%-99% herbicidal effect, phytotoxicity)
CCOC(=O)N(c1ccccc1CN1CCC(c2ccccc2)(C2CC2)OC1=O)S(=O)(=O)C(F)(F)F (centres unmarked) [Compound 1-185]	4 (90%-99% herbicidal effect, phytotoxicity)	4 (90%-99% herbicidal effect, phytotoxicity)	4 (90%-99% herbicidal effect, phytotoxicity)	4 (90%-99% herbicidal effect, phytotoxicity)	4 (90%-99% herbicidal effect, phytotoxicity)
CCOC(=O)N(c1ccccc1CN1CCC(c2ccccc2)(C2CCC2)OC1=O)S(=O)(=O)C(F)(F)F (centres unmarked) [Compound 1-208]	4 (90%-99% herbicidal effect, phytotoxicity)	4 (90%-99% herbicidal effect, phytotoxicity)	4 (90%-99% herbicidal effect, phytotoxicity)	4 (90%-99% herbicidal effect, phytotoxicity)	4 (90%-99% herbicidal effect, phytotoxicity)
CC(C)COC(=O)N(c1ccccc1CN1CCC(c2ccccc2)(C2CCC2)OC1=O)S(=O)(=O)C(F)(F)F (centres unmarked) [Compound 1-211]	4 (90%-99% herbicidal effect, phytotoxicity)	4 (90%-99% herbicidal effect, phytotoxicity)	4 (90%-99% herbicidal effect, phytotoxicity)	4 (90%-99% herbicidal effect, phytotoxicity)	4 (90%-99% herbicidal effect, phytotoxicity)
CCOC(=O)N(c1ccccc1CN1CCC(c2ccccc2)(C(F)(F)F)OC1=O)S(=O)(=O)C(F)(F)F (centres unmarked) [Compound 1-230]	4 (90%-99% herbicidal effect, phytotoxicity)	4 (90%-99% herbicidal effect, phytotoxicity)	5 (100% herbicidal effect, phytotoxicity)	5 (100% herbicidal effect, phytotoxicity)	5 (100% herbicidal effect, phytotoxicity)
CC1(C)CN(Cc2ccccc2NS(=O)(=O)C(F)(F)F)C(=O)OC1c1ccccc1 (centres unmarked) [Compound 1-261]	4 (90%-99% herbicidal effect, phytotoxicity)	4 (90%-99% herbicidal effect, phytotoxicity)	5 (100% herbicidal effect, phytotoxicity)	5 (100% herbicidal effect, phytotoxicity)	5 (100% herbicidal effect, phytotoxicity)
CCOC(=O)N(c1ccccc1CN1CC(C)(C)C(c2ccccc2)OC1=O)S(=O)(=O)C(F)(F)F (centres unmarked) [Compound 1-263]	4 (90%-99% herbicidal effect, phytotoxicity)	4 (90%-99% herbicidal effect, phytotoxicity)	5 (100% herbicidal effect, phytotoxicity)	4 (90%-99% herbicidal effect, phytotoxicity)	5 (100% herbicidal effect, phytotoxicity)
O=C1OC(c2c(Cl)cccc2Cl)CCN1Cc1ccccc1NS(=O)(=O)C(F)(F)F (centres unmarked) [Compound 1-272]	4 (90%-99% herbicidal effect, phytotoxicity)	4 (90%-99% herbicidal effect, phytotoxicity)	5 (100% herbicidal effect, phytotoxicity)	4 (90%-99% herbicidal effect, phytotoxicity)	5 (100% herbicidal effect, phytotoxicity)
CCOC(=O)N(c1ccccc1CN1CCC(c2c(Cl)cccc2Cl)OC1=O)S(=O)(=O)C(F)(F)F (centres unmarked) [Compound 1-274]	4 (90%-99% herbicidal effect, phytotoxicity)	4 (90%-99% herbicidal effect, phytotoxicity)	5 (100% herbicidal effect, phytotoxicity)	4 (90%-99% herbicidal effect, phytotoxicity)	5 (100% herbicidal effect, phytotoxicity)
Cc1ccccc1C1CCN(Cc2ccccc2NS(=O)(=O)C(F)(F)F)C(=O)O1 (centres unmarked) [Compound 1-283]	4 (90%-99% herbicidal effect, phytotoxicity)	4 (90%-99% herbicidal effect, phytotoxicity)	5 (100% herbicidal effect, phytotoxicity)	5 (100% herbicidal effect, phytotoxicity)	5 (100% herbicidal effect, phytotoxicity)
